Laboratory results from paper PMC11844072, “Novel 5,6-dichlorobenzimidazole derivatives as dual BRAFWT and BRAFV600E inhibitors: design, synthesis, anti-cancer activity and molecular dynamics simulations” (BMC Chemistry, 2025).

Key:
Assay in all cases: NCI 60 single concentration growth inhibition
Format in all cases: cell-based, human
M14 = details: Homo sapiens, M14, Melanoma, read-out: GI%
Description: (§1) The synthesized dichlorobenzimidazoles 10a–p were assayed for their influence on divers cancer cell lines according to the method presented in the Additional file A.
(§2) 5. Screening of cytotoxic activity against a panel of sixty human tumor cell lines
(§3) The selected compounds by NCI were evaluated for their anticancer activity in a two-stage process. First, these compounds were screened against the full NCI 60 cell lines panel at a single high dose of 10 µM. Then, the output from the single dose screen is reported as a mean graph. […]
(§4) at five different minimal concentrations.
(§5) Assay protocol. The human tumor cell lines of the cancer screening panel are grown in RPMI 1640 medium containing 5% fetal bovine serum and 2 mM L-glutamine. For a typical screening experiment, cells are inoculated into 96 well microtiter plates in 100 µL at plating densities ranging from 5000 to 40,000 cells/well depending on the doubling time of individual cell lines. After cell inoculation, the microtiter plates are incubated at 37 °C, 5% CO 2, 95% air and 100% relative humidity for 24 h prior to addition of the experimental drugs.
(§6) After 24 h, two plates of each cell line are fixed in situ with TCA, to represent a measurement of the cell population for each cell line at the time of drug addition (Tz). The experimental drugs are solubilized in dimethyl sulfoxide at 400-fold the desired final maximum test concentration and stored frozen prior to use. At the time of drug addition, an aliquot of frozen concentrate is thawed and diluted to twice the desired final maximum test concentration with complete medium containing 50 µg/mL gentamicin. Additional four, 10-fold or ½ log serial dilutions are made to provide a total of five drug concentrations plus control.
(§7) Aliquots of […] of these different drug dilutions are added to the appropriate microtiter wells already containing […] of medium, resulting in the required final drug concentrations.
(§8) Following drug addition, the plates are incubated for an additional 48 h at 37 °C, 5% CO 2, 95% air, and 100% relative humidity. For adherent cells, the assay is terminated by the addition of cold TCA.
(§9) Cells are fixed in situ by the gentle addition of 50 µL of cold 50% (w/v) TCA (final concentration, 10% TCA) and incubated for 60 min at 4 °C. The supernatant is discarded, and the plates are washed five times with tap water and air dried. Sulforhodamine B (SRB) solution ([…]) at 0.4% (w/v) in 1% acetic acid is added to each well, and plates are incubated for 10 min at room temperature. After staining, unbound dye is removed by washing five times with 1% acetic acid and the plates are air dried. Bound stain is subsequently solubilized with 10 mM trizma base, and the absorbance is read on an automated plate reader at a wavelength of 515 nm. For suspension cells, the methodology is […]
(§10) the same except that the assay is terminated by fixing settled cells at the bottom of the wells by gently adding 50 µl of 80% TCA (final concentration, 16% TCA). Using the seven absorbance measurements [time zero, (Tz), control growth, (C), and test growth in the presence of drug at the five concentration levels (Ti)], the percentage growth is calculated at each of the drug concentrations […]
(§11) Percentage growth inhibition is calculated as: [(Ti Tz)/(C–Tz)] x 100 for concentrations for which Ti>/=Tz and [(Ti-Tz)/Tz] x 100 for concentrations for which Ti < Tz.
(§12) Three dose response parameters are calculated for each experimental agent. Growth […]
(§13) concentration resulting in a 50% reduction in the net protein increase (as measured by SRB staining) in control cells during the drug incubation. The drug concentration resulting in total growth inhibition (TGI) is calculated from Ti = Tz. […]
(§14) reduction in the measured protein at the end of the drug treatment as compared to that at the beginning) indicating a net loss of cells following treatment is calculated from [(Ti–Tz)/Tz] x 100 =
(§15) _50. Values are calculated for each of these three parameters if the level of activity is reached; […]

NCI-H226 = details: Homo sapiens, NCI-H226, Non-small cell lung cancer, read-out: GI%
Description: as §1, §2, §3, §4, §5, §6, §7, §8, §9, §10, §11, §12, §13, §14, §15

MDA-MB-435 = details: Homo sapiens, MDA-MB-435, Melanoma, read-out: GI%
Description: as §1, §2, §3, §4, §5, §6, §7, §8, §9, §10, §11, §12, §13, §14, §15

EKVX = details: Homo sapiens, Non-small cell lung cancer, read-out: GI%
Description: as §1, §2, §3, §4, §5, §6, §7, §8, §9, §10, §11, §12, §13, §14, §15

MOLT-4 = details: Homo sapiens, MOLT-4, Leukemia, read-out: GI%
Description: as §1, §2, §3, §4, §5, §6, §7, §8, §9, §10, §11, §12, §13, §14, §15

CCRF-CEM = details: Homo sapiens, Leukemia, read-out: GI%
Description: as §1, §2, §3, §4, §5, §6, §7, §8, §9, §10, §11, §12, §13, §14, §15

UACC-257 = details: Homo sapiens, UACC-257, Melanoma, read-out: GI%
Description: as §1, §2, §3, §4, §5, §6, §7, §8, §9, §10, §11, §12, §13, §14, §15

OVCAR-5 = details: Homo sapiens, OVCAR-5, Ovarian cancer, read-out: GI%
Description: as §1, §2, §3, §4, §5, §6, §7, §8, §9, §10, §11, §12, §13, §14, §15

HOP-62 = details: Homo sapiens, HOP-62, Non-small cell lung cancer, read-out: GI%
Description: as §1, §2, §3, §4, §5, §6, §7, §8, §9, §10, §11, §12, §13, §14, §15

RPMI-8226 = details: Homo sapiens, RPMI-8226, Leukemia, read-out: GI%
Description: as §1, §2, §3, §4, §5, §6, §7, §8, §9, §10, §11, §12, §13, §14, §15

SK-MEL-2 = details: Homo sapiens, SK-MEL-2, Melanoma, read-out: GI%
Description: as §1, §2, §3, §4, §5, §6, §7, §8, §9, §10, §11, §12, §13, §14, §15

SF-295 = details: Homo sapiens, SF-295, CNS cancer, read-out: GI%
Description: as §1, §2, §3, §4, §5, §6, §7, §8, §9, §10, §11, §12, §13, §14, §15

HL-60(TB) = details: Homo sapiens, Leukemia, read-out: GI%
Description: as §1, §2, §3, §4, §5, §6, §7, §8, §9, §10, §11, §12, §13, §14, §15

HS 578T = details: Homo sapiens, Breast cancer, read-out: GI%
Description: as §1, §2, §3, §4, §5, §6, §7, §8, §9, §10, §11, §12, §13, §14, §15

HCT-116 = details: Homo sapiens, HCT-116, Colon cancer, read-out: GI%
Description: as §1, §2, §3, §4, §5, §6, §7, §8, §9, §10, §11, §12, §13, §14, §15

SR = details: Homo sapiens, Leukemia, read-out: GI%
Description: as §1, §2, §3, §4, §5, §6, §7, §8, §9, §10, §11, §12, §13, §14, §15

A498 = details: Homo sapiens, A498, Renal cancer, read-out: GI%
Description: as §1, §2, §3, §4, §5, §6, §7, §8, §9, §10, §11, §12, §13, §14, §15

786-0 = details: Homo sapiens, 786-0, Renal cancer, read-out: GI%
Description: as §1, §2, §3, §4, §5, §6, §7, §8, §9, §10, §11, §12, §13, §14, §15

NCI-H23 = details: Homo sapiens, NCI-H23, Non-small cell lung cancer, read-out: GI%
Description: as §1, §2, §3, §4, §5, §6, §7, §8, §9, §10, §11, §12, §13, §14, §15

A549/ATCC = details: Homo sapiens, Non-small cell lung cancer, read-out: GI%
Description: as §1, §2, §3, §4, §5, §6, §7, §8, §9, §10, §11, §12, §13, §14, §15

CAKI-1 = details: Homo sapiens, CAKI-1, Renal cancer, read-out: GI%
Description: as §1, §2, §3, §4, §5, §6, §7, §8, §9, §10, §11, §12, §13, §14, §15

SF-268 = details: Homo sapiens, SF-268, CNS cancer, read-out: GI%
Description: as §1, §2, §3, §4, §5, §6, §7, §8, §9, §10, §11, §12, §13, §14, §15

SMILES | inhibition at 10 µM (M14) [%] | inhibition at 10 µM (NCI-H226) [%] | inhibition at 10 µM (MDA-MB-435) [%] | inhibition at 10 µM (EKVX) [%] | inhibition at 10 µM (MOLT-4) [%] | inhibition at 10 µM (CCRF-CEM) [%] | inhibition at 10 µM (UACC-257) [%] | inhibition at 10 µM (OVCAR-5) [%] | inhibition at 10 µM (HOP-62) [%] | inhibition at 10 µM (RPMI-8226) [%] | inhibition at 10 µM (SK-MEL-2) [%] | inhibition at 10 µM (SF-295) [%] | inhibition at 10 µM (HL-60(TB)) [%] | inhibition at 10 µM (HS 578T) [%] | inhibition at 10 µM (HCT-116) [%] | inhibition at 10 µM (SR) [%] | inhibition at 10 µM (A498) [%] | inhibition at 10 µM (786-0) [%] | inhibition at 10 µM (NCI-H23) [%] | inhibition at 10 µM (A549/ATCC) [%] | also measured
COC(=O)COc1cccc(C=NNC(=O)Cn2c(-c3ccc(OC)cc3)nc3cc(Cl)c(Cl)cc32)c1 [Compound 10g, Methyl-2-(3-((2-(2-(5,6-dichloro-2-(4-methoxyphenyl)-1H-benzo[d]imidazol-1-yl)acetyl)hydrazono)methyl)phenoxy)acetate] | < 5 | 8 | 11.9 | 13.2 | 30.4 | 20.9 | < 5 | < 5 | < 5 | < 5 | < 5 | < 5 | < 5 | 13.9 | 10.6 | 78.3 | < 5 | 10 | < 5 | < 5 | inhibition at 10 µM (CAKI-1): 10.5%; inhibition at 10 µM (SF-268): < 5%
COC(=O)COc1ccc(C=NNC(=O)Cn2c(-c3ccc(OC)cc3)nc3cc(Cl)c(Cl)cc32)cc1 [Compound 10h, Methyl-2-(4-((2-(2-(5,6-dichloro-2-(4-methoxyphenyl)-1H-benzo[d]imidazol-1-yl)acetyl)hydrazono)methyl)phenoxy)acetate] | 10.8 | < 5 | 18.3 | < 5 | 53.2 | 28.1 | < 5 | < 5 | < 5 | < 5 | 26.4 | < 5 | < 5 | 72.2 | 10.8 | 81.1 | < 5 | 112 | < 5 | < 5 | inhibition at 10 µM (CAKI-1): 5.89%; inhibition at 10 µM (SF-268): < 5%
